{"source": "paper PMC7914648", "about": "(Pharmaceuticals, 2021)", "key": {"[1]": {"assay": "heart after tail vein injection", "conditions": "C57BL/6 mice, up to 60 min"}, "[2]": {"assay": "spleen after tail vein injection", "conditions": "C57BL/6 mice, up to 60 min"}, "[3]": {"assay": "kidneys after tail vein injection", "conditions": "C57BL/6 mice, up to 60 min"}, "[4]": {"assay": "liver extract after tail vein injection", "conditions": "C57BL/6 mice, up to 60 min"}, "[5]": {"assay": "fresh mouse blood, withdrawn from the jugular vein and heparinized", "conditions": "C57BL mice, 37 °C, up to 4 h"}, "[6]": {"conditions": "mouse, in vivo, iv; cited from earlier work"}, "mice": {"system": "mice", "conditions": "cited from earlier work", "description": "While in the name of “reduction” a proper toxicological study was not carried out, the toxicity of TAT-PAPTP was evident. Peptide toxicity issues are not often discussed in the literature, but peptides, in particular arginine-rich ones, can be toxic in vivo as well as for cultured cells. […] Here the TAT-PAPTP conjugate was administered at 5 µmol/kg bw. However, conjugates can behave differently and have different toxicities depending on the attached “cargo” [54, 65, 66], as confirmed by the results of the present ..."}, "[7]": {"assay": "Planar bilayer experiments (membrane permeabilization)", "conditions": "2 µM added to cis side, DPhPC bilayer, −40 mV, n = 3", "description": "The possible effects of An2-PAPTP and TAT-PAPTP on phospholipid membranes were investigated using the lipid bilayer technique. Bilayers with a capacity of 100–150 pF were prepared “painting” a diphytanoylphosphatidylcholine (DPhPC, Avanti Polar Lipids) solution in octane across a 150-µm hole in a Delrin cuvette (Warner Instruments, a division of Harvard Bioscience, Inc., Holliston, MA, USA). The two compartments separated by the bilayer are identified as cis and trans, and all voltages refer to the cis side, zero being assigned to the trans (grounded) one. One mL of recording solution (150 mM KCl, 10 mM HEPES/KOH, pH 7.4) was placed in both compartments. The contents of both chambers were stirred by magnetic bars when necessary. […] An2-PAPTP or TAT-PAPTP (DMSO stock solution) in a final concentration of 0.5 µM were added to the cis side. The final concentration of DMSO was 0.6%. 2 µM gramicidin from Bacillus brevis (Sigma) was added to the cis side as control.\nElectrical connections were made using Ag/AgCl electrodes and agar salt bridges to minimize eliminate liquid junction potentials. Data were acquired at 10 kHz using a Bilayer Clamp BC-525C amplifier (Warner Instruments, a division of Harvard Bioscience, Inc., Holliston, MA, USA.) and low-pass filtered at 300 Hz for presentation. […]"}, "SHSY-5Y cells": {"system": "SHSY-5Y cells", "assay": "MTS cell viability assay", "format": "cell-based", "conditions": "24 h treatment, 20, 10 and 3 μM, absorbance 490 nm, n = 3", "description": "SHSY-5Y cells (kindly provided by I. Szabò) were grown in Dulbecco’s Modified Eagle Medium (DMEM, Aurogene) supplemented with 10% (v/v) fetal bovine serum (FBS), 100 U/mL penicillin G, 0.1 mg/mL streptomycin and 5% glutamine.\nSHSY-5Y cells were seeded (10,000 cells/well) in standard 96-well plates in DMEM (200 µL). After 24 h, the growth medium was replaced with a medium containing PAPTP and PAPTPL (from a stock solution in DMSO) at the desired final concentrations (20, 10 and 3 μM). DMEM without additions (CONTROL in Figure 2) was used as negative control. The final concentration of DMSO was 0.1% or lower in all cases (including control). After incubation for 24 h, 20 µL of CellTiter 96 AQUEOUS One solution (Promega, Italy) were added to each well and the plate was incubated at 37 °C in a humidified, 5% CO2 atmosphere for 4 h. Absorbance was measured at 490 nm to detect formazan formation."}, "[8]": {"format": "in vivo, mouse", "conditions": "PAPTP 5 µmoles/kg bw i.v. in mouse plasma, same procedure", "description": "The brains of these mice were analyzed to evaluate the presence of the construct in the tissue (see Section 4.7). Each brain was homogenized and incubated with an equal volume of phosphate-buffered saline (PBS, pH 12.5) for 24 h; 10 volumes of ethyl acetate were then added. After vigorous mixing, the organic phase was collected, concentrated and analyzed via HPLC. This procedure allows hydrolysis of the carbamate bond, leading to the extraction of PAPTPL, which is considered proportional to the amount of peptide-PAPTP conjugate (or its fragments) present in the brain.\nThe protocol set up for PAPTPL recovery turned out to be inefficient for the quantification of TAT-PAPTP. An alternative protocol was thus developed. Tissue obtained from untreated mice was weighed and homogenized with PBS pH 7.4 (1 vol) with a potter. The pre-established amount of analyte was added into tissue homogenates and, after thorough vortexing, 1 vol of PBS pH 12.5 was added and the sample was incubated with intermittent vortexing at 60 °C for 24 h. This step is required to allow the hydrolysis of the carbamate bond connecting the peptide and PAPTPL. 10 vol of ethyl acetate were added and, after vortexing and sonication for 2 min, the sample was centrifuged at 12,000× g, 7 min, Room Temperature. The organic phase was collected and concentrated with Hetovac VR-1. ACN was added to the concentrated sample to allow the resuspension of PAPTPL and analyzed via HPLC. Quantification was as described for PAPTPL.\nBrain and liver obtained from untreated mice were weighed and homogenized with PBS pH 7.4 (1 vol) with a potter. The pre-established amount of analyte was added into tissue homogenates and, after thorough vortexing, 5 vol of acetone were added and the sample was sonicated for 2 min. Subsequently, 5 vol of ACN containing 0.1% trifluoracetic acid (TFA) were added and the sample was sonicated for 5 min. The sample was then centrifuged at 12,000× g for 7 min at 4 °C and the supernatant was collected, concentrated with a Hetovac VR-1, and analyzed via HPLC-UV.\nTo quantify the amount of An2-PAPTP stuck in the tissue, the pellet remaining after the procedure described above was incubated with intermittent Vortexing at 60 °C for 3 h with PBS pH 12.5/ACN 1:1 and then centrifuged at 12,000× g for 7 min. HPLC-UV analysis of the supernatant, measuring PAPTPL hydrolyzed from the tissue, thus indirectly reflects the amount of An2-PAPTPL in the pellet (Scheme 3). Quantification was as described for PAPTPL.\n(§1) A stock solution of the peptide-PAPTP conjugates was prepared in DMSO. TAT-PAPTP was administered at 8 and 5 μmol/kg bw and An2-PAPTP only at 5 μmol/kg bw. The calculated quantity of drugs was diluted from the stock solution in saline or mouse plasma to a final volume of 200 μL."}, "C57BL mice": {"system": "C57BL mice", "assay": "Observed toxicity after tail vein injection", "format": "in vivo", "conditions": "5 µmoles/kg bw by tail vein injection in mouse plasma; no proper toxicological study", "description": "TAT-PAPTP (5 µmoles/kg bw) was administered by tail vein injection to 2 C57BL mice. […] The observed toxicity was not due to the use of plasma, since mice were not made ill by the administration of PAPTP or An2-PAPTP in the same vehicle (see below, Section 2.7).\nas §1"}, "[9]": {"assay": "Visible precipitation in mouse plasma vehicle", "format": "physicochemical", "conditions": "mouse plasma used as administration vehicle", "from_the_text": "We are not aware of other pharmacological studies utilizing plasma as a vehicle, but a precedent of sorts is provided by some rejuvenation or induced aging studies that examined the systemic effects of heterologous plasma administration."}, "[10]": {"system": "cultured glioma and glioblastoma cell lines", "conditions": "cited from earlier work", "from_the_text": "(§2) In turn, this difficulty may be due at least in part precisely to the TPP group, since the parent compound, PAP-1, is effective against various Central Nervous System (CNS) disorders. This difficulty is not surprising if one compares the characteristics of ..."}, "orthotopic glioma": {"system": "orthotopic glioma", "conditions": "orthotopic murine model; cited from earlier work", "from_the_text": "as §2"}}, "note": "“Also recorded” adds a separate entry of the source."}
{"compound": "HN-ITFFYGGSRGKRNNFKTEEY-OH", "values": [{"measurement": "fragment found", "setting": "[1]", "result": "PAPTPL, 15 min; also recorded: PAPTPL-IT, 30 min; also recorded: PAPTPL-ITF, 30 min"}, {"measurement": "fragment found", "setting": "[2]", "result": "PAPTPL-ITF, 15 min; also recorded: PAPTPL-I, 15 min; also recorded: PAPTPL-IT, 15 min"}, {"measurement": "fragment found", "setting": "[3]", "result": "PAPTPL-I, 15 min; also recorded: PAPTPL-IT, 15 min; also recorded: PAPTPL-ITF, 15 min"}, {"measurement": "fragment found", "setting": "[4]", "result": "PAPTPL-I, 15 min; also recorded: PAPTPL-IT, 15 min; also recorded: PAPTPL-ITF, 15 min"}, {"measurement": "cleaved bond", "setting": "[5]", "result": "hydrolysis of the carbamate bond connecting the peptide and PAPTPL, 10 min"}]}
{"compound": "TWPKHFDKHTFYSILKLGKH [L57]", "values": [{"measurement": "brain input", "setting": "[6]", "result": "approximately 0.04 % of the injected dose"}]}
{"compound": "TAT47–57: arginine-rich TAT peptide segment", "values": [{"measurement": "LD50", "setting": "mice", "result": 17.5, "unit": "µmol/kg bw"}]}
{"compound": "gramicidin", "values": [{"measurement": "appearance of ion currents in planar bilayers (control)", "setting": "[7]", "result": "expected development of “fast” ion currents"}]}
{"compound": "O=c1ccc2c(OCCCCOc3ccc(CCC[P+](c4ccccc4)(c4ccccc4)c4ccccc4)cc3)c3ccoc3cc2o1.[I-]", "note": "[PAPTP, (3-(4-(4-((7-oxo-7H-furo[3,2-g]benzopyran-4-yl)oxy)butoxy)phenyl)propyl) triphenyl phosphonium iodide]", "values": [{"measurement": "cytotoxic effect (cell viability, MTS reduction assay)", "setting": "SHSY-5Y cells", "result": "marked cytotoxicity"}, {"measurement": "level in brain after i.v. PAPTP", "setting": "[8]", "result": "did not reach detectable levels"}, {"measurement": "observed toxicity in mice", "setting": "C57BL mice", "result": "not made ill; also recorded: No sign of toxicity was observed"}, {"measurement": "visible precipitates in plasma", "setting": "[9]", "result": "did not form visible precipitates"}, {"measurement": "killing of cultured glioma and glioblastoma cell lines", "setting": "[10]", "result": "efficiently killed"}, {"measurement": "effect on tumor growth", "setting": "orthotopic glioma", "result": "did not affect tumor growth"}]}
